Results from article PMC6407587, “Inhibition potential of phenolic constituents from the aerial parts of Tetrastigma hemsleyanum against soluble epoxide hydrolase and nitric oxide synthase” (Journal of Enzyme Inhibition and Medicinal Chemistry, 2019).
Read-outs that look alike come from different tables or passages of the source.

Legend:
sEH [1] = molecular target: T1, sEH (Homo sapiens, UniProt P34913); assay: sEH inhibitory activity, fluorescence assay with PHOME substrate; assay type: biochemical; details: for inhibition at 100 µM / Inhibition on sEH at 100 µM (%): 100 µM compound, tested three times; for IC50: PHOME substrate, dose-dependent response curve
T1 sequence (P34913 1-555): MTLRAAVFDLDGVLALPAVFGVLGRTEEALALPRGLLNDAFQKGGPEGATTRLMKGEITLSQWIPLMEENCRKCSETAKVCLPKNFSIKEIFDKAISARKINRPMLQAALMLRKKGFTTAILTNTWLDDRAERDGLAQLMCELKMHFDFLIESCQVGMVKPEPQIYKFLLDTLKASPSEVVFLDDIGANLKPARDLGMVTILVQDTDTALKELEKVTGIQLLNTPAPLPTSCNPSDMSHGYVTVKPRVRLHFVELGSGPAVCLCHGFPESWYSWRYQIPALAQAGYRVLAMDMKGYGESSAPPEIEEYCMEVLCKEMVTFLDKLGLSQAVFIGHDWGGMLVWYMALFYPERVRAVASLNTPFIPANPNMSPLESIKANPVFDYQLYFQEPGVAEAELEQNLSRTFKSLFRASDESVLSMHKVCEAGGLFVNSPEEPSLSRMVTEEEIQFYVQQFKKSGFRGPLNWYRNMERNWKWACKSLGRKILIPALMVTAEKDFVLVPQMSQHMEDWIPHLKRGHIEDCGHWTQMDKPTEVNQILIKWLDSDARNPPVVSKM

[2] = test system: LPS-induced NO production in macrophage RAW 264.7 cells (iNOS); assay: Inhibition of LPS-induced NO production in RAW 264.7 macrophages (Griess reaction, measure of iNOS activity); assay type: cell-based; details: for IC50: means ± SE, n = 3;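 on all read-outs here: cells pretreated with compound for 2 h, then stimulated 24 h with LPS at 500 ng/ml, supernatant nitrite quantified by absorbance at 550 nm against a nitrite standard curve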
sEH [3] = molecular target: T1, sEH; assay: sEH binding mechanism, Dixon and Lineweaver-Burk plots at different substrate and inhibitor concentrations; assay type: biochemical; details: for Ki: Dixon plots; for Type of sEH inhibition: Dixon / Lineweaver-Burk plots
[4] = Mus musculus, 50 µM compound, LPS-stimulated RAW264.7 cells, read-out: Inhibition of NO production at 50 µM (%)
[5] = 50 µM compound, LPS-stimulated RAW264.7 cells
[6] = Mus musculus, RAW264.7, LPS-stimulated RAW264.7 cells
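Wherever Cytotoxicity in RAW 264.7 cells (MTT) is given: viability gauged by mitochondrial reductase turning MTT into formazan, optical density read at 570 nm, with untreated control cells set as 100% viability.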

Row | SMILES | inhibition at 100 µM (sEH [1]) | IC50 (sEH [1]) | inhibition at 50 µM [2, 4] | Cytotoxicity in RAW 264.7 cells (MTT) (RAW 264.7 cells) | further results
1 | O=C(/C=C\c1ccc(O)cc1)O[C@@H]1C[C@@](O)(C(=O)O)C[C@@H](O)[C@@H]1O [Compound 9] | 32.3 ± 2.7% | – | – | did not exhibit significant cytotoxicity | Inhibition of NO production at 50 µM (%) [2, 5]: N.I
2 | COC(=O)C1(O)CC(O)C(OC(=O)C=Cc2ccc(O)c(O)c2)C(O)C1 (centres unmarked) [Compound 8] | – | 9.4 ± 0.2 µM | 25.2% | did not exhibit significant cytotoxicity | Ki (sEH [3]): 13.7 µM
3 | COc1cc(/C=C/C(=O)O[C@@H]2C[C@@](O)(C(=O)O)C[C@@H](O)[C@@H]2O)ccc1O [Compound 3] | 67.1 ± 3.4% | 60.7 ± 1.9 µM | 26.1% | did not exhibit significant cytotoxicity | –
4 | O=C(/C=C/c1ccc(O)cc1)O[C@@H]1C[C@@](O)(C(=O)O)C[C@@H](O)[C@@H]1O [Compound 2] | 4.4 ± 3.2% | – | 19.7% | did not exhibit significant cytotoxicity | –
5 | COC(=O)[C@@]1(O)C[C@@H](O)[C@H](O)[C@H](OC(=O)/C=C/c2ccc(O)c(O)c2)C1 [Compound 4] | 68.3 ± 3.4% | 30.4 ± 0.8 µM | – | – | Inhibition of NO production at 50 µM (%) [2, 5]: N.I
6 | O=c1cc(-c2ccc(O)cc2)oc2cc(O)cc(O)c12 [Compound 12, apigenin] | 92.4 ± 2% | 7.2 ± 0.3 µM | 98.9% | did not exhibit significant cytotoxicity | Type of sEH inhibition (sEH [3]): Non-competitive; Ki (sEH [3]): 24.4 µM; IC50 [2, 6]: 12.2 ± 0.1 µM
7 | COC(=O)[C@]1(O)C[C@@H](O)[C@@H](O)[C@H](OC(=O)/C=C/c2ccc(O)c(O)c2)C1 [Compound 6] | 111 ± 1.9% | 14.7 ± 0.4 µM | 1.8% | – | –
8 | O=C(/C=C/c1ccc(O)c(O)c1)O[C@@H]1C[C@@](O)(C(=O)O)C[C@@H](O)[C@@H]1O [Compound 1] | 74.3 ± 3.4% | 41.9 ± 1.2 µM | 5.7% | did not exhibit significant cytotoxicity | –
9 | C[C@@H]1O[C@@H](OC[C@H]2O[C@@H](Oc3c(-c4ccc(O)c(O)c4)oc4cc(O)cc(O)c4c3=O)[C@H](O)[C@@H](O)[C@@H]2O)[C@H](O)[C@H](O)[C@H]1O [Compound 16] | – | 6.2 ± 0.1 µM | – | did not exhibit significant cytotoxicity | Inhibition on sEH at 100 µM (%) (sEH [1]): 95.2 ± 0.2%; Type of sEH inhibition (sEH [3]): non-competitive; Inhibition of NO production at 50 µM (%) [2, 5]: 26.2%
10 | O=C(C=Cc1ccc(O)c(O)c1)OC1C(O)CC(O)(C(=O)O)CC1O (centres unmarked) [Compound 7] | 69.2 ± 0.9% | 50.8 ± 1.5 µM | 10.7% | did not exhibit significant cytotoxicity | –
11 | O=c1ccc2cc(O)c(O)cc2o1 [Compound 19] | – | 4.5 ± 0.2 µM | 50.1% | did not exhibit significant cytotoxicity | Ki (sEH [3]): 10.2 µM; IC50 [2, 6]: 47.3 ± 6.9 µM
12 | C[C@@H]1O[C@@H](OC[C@H]2O[C@@H](Oc3c(-c4ccc(O)cc4)oc4cc(O)cc(O)c4c3=O)[C@H](O)[C@@H](O)[C@H]2O)[C@H](O)[C@H](O)[C@H]1O [Compound 15] | 60.2 ± 0.5% | 18.3 ± 0.2 µM | 3% | did not exhibit significant cytotoxicity | –
13 | O=C1C[C@@H](c2ccc(O)cc2)Oc2cc(O)ccc21 [Compound 11] | 34.5 ± 2.5% | – | 10.8% | – | –
14 | C[C@@H]1C[C@H]2[C@@H]3CCC4=CC(=O)C=C[C@]4(C)[C@@]3(F)[C@@H](O)C[C@]2(C)[C@@]1(O)C(=O)CO [Dexamethasone, reference compound] | – | – | – | – | IC50 ([2]; LPS-stimulated RAW264.7 cells): 10.5 ± 0.1 µM; IC50 [2, 6]: 10.5 ± 0.13 µM
15 | COc1cc([C@@H]2Oc3c(OC)cc(CCCO)cc3[C@H]2CO)cc(OC)c1O [Compound 21] | – | – | 16.2% | did not exhibit significant cytotoxicity | Inhibition on sEH at 100 µM (%) (sEH [1]): N.I
16 | O=C1c2c(O)cc(O)cc2O[C@H](c2ccc(O)cc2)[C@H]1O[C@@H]1O[C@H](CO)[C@@H](O)[C@H](O)[C@H]1O [Compound 13] | 22.7 ± 3.9% | – | – | did not exhibit significant cytotoxicity | Inhibition of NO production at 50 µM (%) [2, 5]: N.I
17 | CC[C@H](/C=C/[C@@H](C)[C@H]1CC[C@H]2[C@@H]3CC=C4C[C@@H](O[C@@H]5O[C@H](CO)[C@@H](O)[C@H](O)[C@H]5O)CC[C@]4(C)[C@H]3CC[C@]12C)C(C)C [Compound 39] | – | – | – | did not exhibit significant cytotoxicity | Inhibition on sEH at 100 µM (%) (sEH [1]): N.I; inhibition at 50 µM ([2]; Mus musculus, RAW264.7, read-out: Inhibition of NO production at 50 µM (%)): 20.3%
18 | CCCCOC(=O)[C@@]1(O)C[C@@H](O)[C@H](O)[C@H](OC(=O)/C=C/c2ccc(O)c(O)c2)C1 [Compound 5] | 77.7 ± 2.6% | 33.1 ± 0.3 µM | 53% | did not exhibit significant cytotoxicity | IC50 [2, 6]: 45.3 ± 1.4 µM
19 | COc1cc([C@H]2Oc3c(OC)cc(CCCO)cc3[C@@H]2CO[C@@H]2O[C@H](CO)[C@@H](O)[C@H](O)[C@H]2O)ccc1O [Compound 20] | – | – | 13.9% | did not exhibit significant cytotoxicity | Inhibition on sEH at 100 µM (%) (sEH [1]): N.I
20 | O=c1c(O[C@@H]2O[C@H](CO)[C@@H](O)[C@H](O)[C@H]2O)c(-c2ccc(O)cc2)oc2cc(O)cc(O)c12 [Compound 14] | 78 ± 1% | 21.3 ± 0.3 µM | 9% | did not exhibit significant cytotoxicity | –
21 | CC1OC(OCC2OC(OCCc3ccccc3)C(O)C(O)C2O)C(O)C(O)C1O (centres unmarked) [Compound 36] | – | – | 20.9% | did not exhibit significant cytotoxicity | Inhibition on sEH at 100 µM (%) (sEH [1]): N.I

Second part, led by results:

Row | inhibition at 100 µM (sEH [1]) | IC50 (sEH [1]) | SMILES | inhibition at 50 µM [2, 4] | Cytotoxicity in RAW 264.7 cells (MTT) (RAW 264.7 cells) | further results
22 | 10.7 ± 3% | – | COc1cc(C(=O)O)cc(OC)c1O [Compound 23] | 14.1% | – | –
23 | – | 6.8 ± 0.9 µM | Oc1ccc(/C=C/c2cc(O)cc(O)c2)cc1 [Compound 32] | 77.7% | did not exhibit significant cytotoxicity | IC50 [2, 6]: 30.6 ± 1.8 µM
24 | 24.6 ± 3.1% | – | CC/C=C\CCO[C@@H]1O[C@H](CO)[C@@H](O)[C@H](O)[C@H]1O [Compound 37] | 14.5% | did not exhibit significant cytotoxicity | –
25 | – | 21 ± 0.4 µM | O=C(O)/C=C/c1ccc(O)c(O)c1 [Compound 30] | 21.5% | did not exhibit significant cytotoxicity | –
26 | 19.4 ± 0.8% | – | Oc1ccc(-c2ccc(O)c(O)c2)cc1O [Compound 33] | 3% | did not exhibit significant cytotoxicity | –
27 | 13.3 ± 0.2% | – | OC[C@H]1O[C@@H](OCCc2ccccc2)[C@H](O)[C@@H](O)[C@@H]1O [Compound 34] | 12.8% | did not exhibit significant cytotoxicity | –
28 | 39.7 ± 4.4% | – | O=C(O)/C=C/c1ccc(O)cc1 [Compound 29] | 13.4% | – | –
29 | 17.5 ± 0.2% | – | COc1ccc(C(=O)O)cc1O [Compound 27] | 24% | did not exhibit significant cytotoxicity | –
30 | 21.3 ± 0.2% | – | COc1cc(C(=O)O)ccc1O [Compound 26] | 11.4% | – | –
31 | 31.9 ± 4.5% | – | O=C1CC(c2ccc(O)c(O)c2)c2c(O)cc3c(c2O1)CC(O)C(c1ccc(O)c(O)c1)O3 (centres unmarked) [Compound 22] | 18.3% | did not exhibit significant cytotoxicity | –
32 | 10.5 ± 3% | – | OC[C@H]1O[C@@H](OC[C@@H](O)c2ccc(O)cc2)[C@H](O)[C@@H](O)[C@@H]1O [Compound 35] | 15.9% | did not exhibit significant cytotoxicity | –
33 | 43 ± 1.1% | – | COc1cc(/C=C/C(=O)O)ccc1O [Compound 31] | 10.6% | – | –
34 | 22.1 ± 0.9% | – | O=C(CO)c1ccc(O)cc1 [Compound 28] | 6.2% | did not exhibit significant cytotoxicity | –
35 | 39.5 ± 4.1% | – | C[C@@H]1CC[C@]2(C(=O)O)CC[C@]3(C)C(=CC[C@@H]4[C@@]5(C)C[C@@H](O)[C@@H](O)C(C)(C)[C@@H]5CC[C@]43C)[C@@H]2[C@]1(C)O [Compound 38] | 8.9% | did not exhibit significant cytotoxicity | –
36 | 38.6 ± 0.2% | – | O=Cc1ccc(O)c(O)c1 [Compound 24] | 22.2% | did not exhibit significant cytotoxicity | –
37 | 42 ± 3.9% | – | O=C(O)c1ccc(O)cc1 [Compound 25] | 17% | did not exhibit significant cytotoxicity | –
